Publication PMC10142904, “Identification of Novel Cyclooxygenase-1 Selective Inhibitors of Thiadiazole-Based Scaffold as Potent Anti-Inflammatory Agents with Safety Gastric and Cytotoxic Profile” (Molecules, 2023)
Values joined by “and” are separate entries in the source; they are usually repeats but may differ in a detail not shown here. Equal values may be shown once. Read-outs that look alike come from different tables or passages of the source.

Experiments:
[1] = cited from earlier work
[2] = tested on: carrageenan-induced mouse paw edema; assay: Carrageenan-induced mouse paw edema; type: in vivo; details: i.p., 0.028 mmol/kg, paw weight after 3.5 h; for inhibition in vivo at 28 µmol/kg: Mus musculus, ip, 3.5 h
Experimental: All tested compounds were administrated through i.p. with a molar concentration of 0.028 mmol/kg.
The animals were weighed and then randomly divided into control, standard and test groups with each group including 10 mice. […] Edema was induced by injecting 0.1 mL of 1% aqueous solution of carrageenan subcutaneously to the sub-plantar region of the right hind paw, utilizing the left paw as control. The assessed derivatives, in suspended water/Tween-80, were injected i.p. […] After 3.5 h, the hind paws were excised and were weighed separately. The edema paws were estimated as paw weight increase.

gastric mucosa = assay: Ulcerogenic activity (gastric lesions after oral dosing); type: in vivo; details: mice, oral 0.028 mmol/kg, 3 successive days, N = 5
Experimental: Gastric toxicity was conducted through oral administration of 0.028 mmol/kg of the tested derivatives on mice, and the extent of lesions of the gastric mucosa was measured. […] This study clearly indicated the superiority of our compounds over indomethacin concerning ulcerogenic liability.
The ulcerogenicity effect of compounds was assessed on male mice by following the reported protocol. Male mice weighing 22–25 g were separated into six groups (five animals in each group). […] The placebo control group was administrated saline with few drops of Tween-80. The animals were sacrificed 4 h after the last dose, and the stomachs were inspected for stomach lesions. The scoring of ulcerogenicity was expressed in terms of: average number of ulcers per stomach, percentage incidence of ulcers and percent incidence of ulcer divided by 10. The ulcer index was calculated using the sum of the three above values.

ovine COX-1 = target: T1, ovine COX-1 (Ovis aries, UniProt P05979); assay: COX-1 inhibition (Cayman COX Inhibitor Screening Assay); type: biochemical; details: for IC50: read-out: COX-1 Inhibition, IC50 (μΜ)
T1 construct: purchased Cayman Chemical Co., Ann Arbor, MI, USA
T1 sequence (P05979 25-600): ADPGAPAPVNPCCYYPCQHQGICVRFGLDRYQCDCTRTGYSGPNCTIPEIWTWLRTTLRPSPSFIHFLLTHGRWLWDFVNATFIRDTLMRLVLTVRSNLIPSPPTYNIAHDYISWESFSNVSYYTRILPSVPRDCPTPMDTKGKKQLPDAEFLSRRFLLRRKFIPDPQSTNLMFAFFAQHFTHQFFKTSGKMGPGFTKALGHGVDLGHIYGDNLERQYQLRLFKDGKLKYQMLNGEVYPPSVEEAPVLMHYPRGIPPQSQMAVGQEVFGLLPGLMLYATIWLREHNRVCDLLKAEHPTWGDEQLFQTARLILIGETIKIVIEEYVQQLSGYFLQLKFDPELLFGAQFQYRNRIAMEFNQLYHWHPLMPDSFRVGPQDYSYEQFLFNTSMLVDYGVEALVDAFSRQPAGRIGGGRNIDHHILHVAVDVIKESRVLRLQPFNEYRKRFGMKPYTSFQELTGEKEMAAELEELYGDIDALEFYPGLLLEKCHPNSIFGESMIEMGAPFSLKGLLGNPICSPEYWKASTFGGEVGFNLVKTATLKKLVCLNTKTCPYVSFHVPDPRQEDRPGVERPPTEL
Experimental: (§1) κ-Carrageenan and lipoxygenase type I-B from soybean were obtained from Sigma (St. Louis, MO, USA). COX inhibition was studied utilizing the kit of “COX Inhibitor Screening Assay” (Cayman Chemical Co., Ann Arbor, MI, USA).
(§2) The action of the tested derivatives on COX-1 and COX-2 inhibition was analyzed utilizing a commercial kit furnished by Cayman (Cayman Chemical Co., Ann Arbor, MI, USA) and by applying the instructions of the manufacturer. The kit utilizes human recombinant COX-2 and ovine COX-1 enzymes. […] The assay analyzes PGF2a produced by SnCl2 reduction of COX-derived PGH2.

human recombinant COX-2 = tested on: T2, human recombinant COX-2; assay: COX-2 inhibition (Cayman COX Inhibitor Screening Assay); type: biochemical
T2 construct: purchased Cayman Chemical Co., Ann Arbor, MI, USA
Experimental: as §1, §2

soybean LOX = tested on: T3, soybean LOX; assay: LOX activity inhibition; type: biochemical
T3 construct: purchased Sigma (St. Louis, MO, USA)
Excerpt: κ-Carrageenan and lipoxygenase type I-B from soybean were obtained from Sigma (St. Louis, MO, USA). COX inhibition was studied utilizing the kit of “COX Inhibitor Screening Assay” (Cayman Chemical Co., Ann Arbor, MI, USA). In vivo tests, male and female (23–30 g) mice R”’ were stored in the Centre of the School of Veterinary Medicine (EL54-BIO42), (Aristotle University of Thessaloniki, Thessaloniki, Greek), licensed by the state official veterinary authorities (presidential degree 56/2013, in standardization with the European Directive 2010/63/EEC). The experimental protocols were approved by the Committee of Animal Ethics of the Prefecture of Central Macedonia (no. 270079/2500).
The reaction mixture contained the final concentration (300 µΜ) of the test derivatives, dissolved in absolute ethanol (10–300 µM), or the solvent (control), soybean LOX, dissolved in 0.9% NaCl solution (250 u/mL) and sodium linoleate (100 µM), in Tris–HCl buffer, pH 9.0. The reaction was monitored for 7 min at a temperature of 28 °C, noting the absorbance (234 nm) of a conjugated diene structure, following the formation of 13-hydroperoxy-linoleic acid. The performance of the assay was validated utilizing NDGA as a standard. For the evaluation of the inhibition type, the above experiments were repeated, utilizing sodium linoleate (1 mM), which is greater than the saturating substrate concentration.

MRC-5 cells = assay: Cytotoxicity / cell proliferation in MRC-5 cells; type: cell-based, human; details: MRC-5 cells, 0.1, 1 and 10 μM, 48 h
Experimental: The evaluation of cellular cytotoxicity of derivatives 3, 4, 10, 11 and 14 in normal human MRC-5 cells was accomplished at three different concentrations in cell culture, i.e., 0.1, 1 and 10 μM (Figure 7). No substantial effect on cell proliferation after 48 h of exposure was found in cultures, as the growth was ≥98% for all assessed agents by comparison with the control (untreated cells) (Figure 7).
The MRC-5 human cell line from lung fibroblast was stored and then utilized in our laboratory in a conventional manner (passage < 40). MRC-5 cells were cultured (using a humidified atmosphere enclosing 5% CO2 at 37 °C) in medium DMEM with 10% v/v FBS, 1% PS penicillin–streptomycin. The assessed derivatives were dissolved in dimethyl sulfoxide and stored at a temperature of 4 degrees centigrade. For cytotoxicity assessment, cells were seeded in 96-well culture plates at 5 × 10^4 cells/mL (initial density) and permitted to attach for at least 3 h before adding the compounds at increasing concentrations (0.1, 1 and 10 µM). […] To evaluate the cytotoxicity of each derivative, the cells were given an additional 48 h to grow before estimating their number in culture utilizing the Neubauer counting chamber (microscope observation). In every treated culture, cell growth was expressed and reported as the percentage of untreated growing cells. GraphPad Prism 6.0 program was utilized in order to accomplish statistical t-test analysis.
Figure 7 Cell proliferation assessment of MRC-5 cell lines subjected to different derivatives in cell culture. MRC-5 cell lines grown in culture were incubated separately with each of the derivatives at concentrations of 0.1, 1 and 10 μM for 48 h. The cell number was analyzed in cell cultures with microscopic techniques (Neubauer counting chamber), as reported in “Methods” and expressed as % of the proliferation of cultures involving control untreated cells. […] The diagram illustrated above and the t-test statistical analysis were performed utilizing the GraphPad Prism 6.0 program. No significant statistical difference between the control untreated culture cells with each tested derivative was attained.

## CC(C)Cc1ccc([C@H](CF)C(=O)O)cc1 [(S)-F-ibuprofen]
[1]
  Gastric damage (in words): low gastric damage

## O=C1N/C(=N\c2nnc(C34CC5CC(CC(C5)C3)C4)s2)S/C1=C\c1ccccc1 [Compound 1]
[2]
  inhibition in vivo at 28 µmol/kg: 40.8 ± 1.9%

## O=C1N/C(=N\c2nnc(C34CC5CC(CC(C5)C3)C4)s2)S/C1=C\c1ccc(F)cc1 [Compound 2]
[2]
  inhibition in vivo at 28 µmol/kg: 39.7 ± 1.6%

## O=C1NC(=Nc2nnc(C34CC5CC(CC(C5)C3)C4)s2)SC1=Cc1ccc(Br)cc1 [Compound 3]
[2]
  inhibition in vivo at 28 µmol/kg: 62%
  Edema Inhibition, (%): 62.0 ± 1.8 %
Gastric mucosa
  Number of Animals with Ulcer: nil
Ovine COX-1
  COX-1 Inhibition, Inhibition (%) 200 μΜ: 100%
  IC50: 1.08 µM and 1.12 µM
Human recombinant COX-2
  COX-2 Inhibition, Inhibition (%) 200 μΜ: 0%
Soybean LOX
  Enzymatic inhibition against LOX (in words): modest enzymatic inhibition
  LOX Inhibition (%) 100 μΜ: 42.9 ± 1.9 %
MRC-5 cells
  Cell growth by comparison with the control (untreated cells): ≥ 98%

## O=C1NC(=Nc2nnc(C34CC5CC(CC(C5)C3)C4)s2)SC1=Cc1ccc([N+](=O)[O-])cc1 [Compound 4]
[2]
  inhibition in vivo at 28 µmol/kg: 66.7%
  Edema Inhibition, (%): 66.7 ± 2.1 %
Gastric mucosa
  Number of Animals with Ulcer: nil
Ovine COX-1
  COX-1 Inhibition, Inhibition (%) 200 μΜ: 100%
  IC50: 1.12 µM and 1.08 µM
Human recombinant COX-2
  COX-2 Inhibition, Inhibition (%) 200 μΜ: 0%
Soybean LOX
  Enzymatic inhibition against LOX (in words): modest enzymatic inhibition
  LOX Inhibition (%) 100 μΜ: 39.8 ± 181 %
MRC-5 cells
  Cell growth by comparison with the control (untreated cells): ≥ 98%

## Cc1ccc(/C=C2\S/C(=N/c3nnc(C45CC6CC(CC(C6)C4)C5)s3)NC2=O)cc1 [Compound 5]
[2]
  inhibition in vivo at 28 µmol/kg: 47.2 ± 1.2%

## COc1ccc(/C=C2\S/C(=N/c3nnc(C45CC6CC(CC(C6)C4)C5)s3)NC2=O)cc1 [Compound 6]
[2]
  inhibition in vivo at 28 µmol/kg: 37 ± 1.6%

## CN(C)c1ccc(/C=C2\S/C(=N/c3nnc(C45CC6CC(CC(C6)C4)C5)s3)NC2=O)cc1 [Compound 7]
[2]
  inhibition in vivo at 28 µmol/kg: 43.6 ± 1.3%

## O=C1N/C(=N\c2nnc(C34CC5CC(CC(C5)C3)C4)s2)S/C1=C\c1ccccc1[N+](=O)[O-] [Compound 8]
[2]
  inhibition in vivo at 28 µmol/kg: 37 ± 1.4%

## O=C1N/C(=N\c2nnc(C34CC5CC(CC(C5)C3)C4)s2)S/C1=C\c1cccc([N+](=O)[O-])c1 [Compound 9]
[2]
  inhibition in vivo at 28 µmol/kg: 41.9 ± 1.8%

## O=C1NC(=Nc2nnc(C34CC5CC(CC(C5)C3)C4)s2)SC1=Cc1cccc(F)c1F [Compound 10, 2-{[5-(Adamantan-1-yl)-1,3,4-thiadiazol-2-yl]-imino}-5-(2,3-difluorobenzylidene)-1,3-thiazolidin-4-one]
[2]
  inhibition in vivo at 28 µmol/kg: 55.8%
  Edema Inhibition, (%): 55.8 ± 1.9 %
MRC-5 cells
  Cell growth by comparison with the control (untreated cells): ≥ 98%

## O=C1N/C(=N\c2nnc(C34CC5CC(CC(C5)C3)C4)s2)S/C1=C\c1c(F)cccc1F [Compound 11]
[2]
  inhibition in vivo at 28 µmol/kg: 60%
MRC-5 cells
  Cell growth by comparison with the control (untreated cells): ≥ 98%

## O=C1N/C(=N\c2nnc(C34CC5CC(CC(C5)C3)C4)s2)S/C1=C\c1cccc(Cl)c1Cl [Compound 12]
[2]
  inhibition in vivo at 28 µmol/kg: 34.5 ± 1.1%

## O=C1N/C(=N\c2nnc(C34CC5CC(CC(C5)C3)C4)s2)S/C1=C\c1ccc(Cl)cc1Cl [Compound 13]
[2]
  inhibition in vivo at 28 µmol/kg: 36 ± 1.8%

## COc1cc(/C=C2\S/C(=N/c3nnc(C45CC6CC(CC(C6)C4)C5)s3)NC2=O)ccc1O [Compound 15]
[2]
  inhibition in vivo at 28 µmol/kg: 21.4%
  Edema Inhibition, (%): 21.4 ± 2.1 %

## Cc1onc(-c2ccc(Cl)o2)c1-c1ccccc1 [Compound P6]
[1]
  Gastric toxicity (in words): devoid of any gastric toxicity

## COc1ccc(-c2nc(C(=O)N3CCN(C)CC3)sc2-c2ccc(OC)cc2)cc1 [FR122047]
[1]
  Gastric toxicity (in words): devoid of any gastric toxicity

## COc1ccc2c(c1)c(CC(=O)O)c(C)n2C(=O)c1ccc(Cl)cc1 [Indomethacin, reference compound]
Gastric mucosa
  Number of Animals with Ulcer: 4/5
Gastric mucosa; listed as indomethacin
  Number of Animals with Ulcer: four out of five

## COc1ccc(-c2noc(CC(=O)O)c2-c2ccc(OC)cc2)cc1 [Mofezolac]
[1]; dose of 10 mg
  Ulcer index: 0.98

## COc1ccc2c(c1)c(CC(=O)O)c(C)n2C1CCN(C)CC1 [N-methylpiperidinylindole]
[1]; in vivo
  Gastric toxicity (in words): devoid of any gastric toxicity

## COc1ccc2cc([C@H](C)C(=O)O)ccc2c1 [Naproxen, reference compound]
Human recombinant COX-2
  COX-2 Inhibition, Inhibition (%) 200 μΜ: 17.0 ± 2.3 %

## COc1ccc(-n2nc(C(F)(F)F)cc2-c2ccc(Cl)cc2)cc1 [SC-560]
[1]
  Gastric toxicity (in words): devoid of any gastric toxicity

## Nc1ccc(NC(=O)c2ccc(C(F)(F)F)cc2)cc1 [TFAP]
[1]; in vivo
  Gastric toxicity (in words): devoid of any gastric toxicity

## COc1ccc(-c2nc(NCC(=O)O)sc2-c2ccc(OC)cc2)cc1 [diarylthiazole]
[1]
  Gastric damage (in words): low gastric damage
